Measurements from patent US8487001B2, “Medium-chain length fatty acids, glycerides and analogues as neutrophil survival and activation factors” (ProMetic BioSciences Inc., priority 2001, dated 2013).

Legend:
[1] = test system: B16F10 melanoma; test: Antitumor activity in B16F10 melanoma model; type: in vivo, C57BL/6 mice; conditions: FIG. 10; MCT 25 μMole/mouse i.v. day 7, 9, 14, 16; doxorubicin 10 mg/kg day 10 and 17 (sub-therapeutic); day 22
Description: Female 6-8-week old C57BL/6 mice were injected intravenously on day 0 with 1×10^5 B16F10 melanoma cells from ATCC (source of cell culture, Dr. I. J. Fidler). […] Mice were sacrificed on day 22. Body weight and tumor volume were recorded.

[2] = test system: neutrophils (PMN); test: Doxorubicin-induced neutrophil apoptosis, 4 hr incubation with or without MCT; type: cell-based, human
Description: (§1) PMN were isolated as described in example 10. Cells (2×10^6/ml) were incubated for 4 hr, at 37° C. in 5% CO2 and 95% humidity in the presence of various concentrations of a chemotherapeutic agent, doxorubicin. Apoptotic cells were evaluated as described in example 10. Data are expressed in percent of apoptotic cells.
as §1, with “doxorubicin with or without MCT (2.5% and 5.0%).” for “a chemotherapeutic agent, doxorubicin.”
Results are expressed in percent of apoptotic cells after 4 hr of incubation in the presence or the absence of doxorubicin with or without MCT. […] However, in the presence of MCT, at a concentration of 2.5% and 5% (v/v), the apoptotic effects of doxorubicin are inhibited. Thus, MCT exerts an anti-apoptotic action on PMN. Apoptosis was also studied using the annexin V-FITC/PI (propidium iodide) to method according to the manufacturer's Biosources recommendations (Apotarget Annexin-VFITC Apoptosis Kit #PHN 1018). Annexin V binds to phosphatidylserine which is transferred from the internal to external membrane in early to late phase apoptosis. Briefly, neutrophils are incubated in the presence or absence of varying concentrations of doxorubicin and MCT. After 24 hr, neutrophils are washed with PBS and stained with […] of Annexin V-FITC and 10 μl of PI (Sigma, 1 mg/ml) for 20 minutes. After incubation, stained cells were fixed in paraformaldehyde (1%) and analyzed for apoptosis using an XL Flow Cytometer (Coulter). Data were then expressed as the percent of apoptotic cells. FIG. 4A represents a time-course response of MCT on doxorubicin-treated neutrophils.

[3] = Doxorubicin-induced neutrophil apoptosis, comparison to GM-CSF (% PMN viability); type: cell-based, human; conditions: human
Text: Table 2 represents the effect of GM-CSF, MCT and tricaprylin on doxorubicin-induced human neutrophil apoptosis.

Structure (SMILES): COc1cccc2c1C(=O)c1c(O)c3c(c(O)c1C2=O)C[C@@](O)(C(=O)CO)C[C@@H]3O[C@H]1C[C@H](N)[C@H](O)[C@H](C)O1 [Doxorubicin, doxorubicin]
- reduction of the tumor volume [1]: around 25%
- % Apoptosis of neutrophils (PMN) ([2]; Experiment 1, doxorubicin 10^-4 M alone (Control, no MCT)): 27.5%
- % Apoptosis of neutrophils (PMN) ([2]; Experiment 1, doxorubicin 10^-5 M alone (Control, no MCT)): 23.8%
- % Apoptosis of neutrophils (PMN) ([2]; Experiment 1, doxorubicin 10^-6 M alone (Control, no MCT)): 23.2%
- % Apoptosis of neutrophils (PMN) ([2]; Experiment 1, doxorubicin 10^-8 M alone (Control, no MCT)): 18.7%
- % Apoptosis of neutrophils (PMN) ([2]; Experiment 1, doxorubicin 10^-10 M alone (Control, no MCT)): 9.3%
- % Apoptosis of neutrophils (PMN) ([2]; Experiment 2, doxorubicin 10^-4 M alone (Control, no MCT)): 53.2%
- % Apoptosis of neutrophils (PMN) ([2]; Experiment 2, doxorubicin 10^-5 M alone (Control, no MCT)): 66.2%
- % Apoptosis of neutrophils (PMN) ([2]; Experiment 2, doxorubicin 10^-6 M alone (Control, no MCT)): 55.0%
- % Apoptosis of neutrophils (PMN) ([2]; Experiment 2, doxorubicin 10^-8 M alone (Control, no MCT)): 59.2%
- % Apoptosis of neutrophils (PMN) ([2]; Experiment 2, doxorubicin 10^-10 M alone (Control, no MCT)): 60.6%
- effect on PMN apoptosis ([2]; various concentrations of doxorubicin, FIGS. 3A and 3B): induces PMN apoptosis
- viability [3]: 6.82 ± 0.5%
